Experimental data published in ChEMBL document CHEMBL2021805, “Structural polymorphism of human telomere G-quadruplex induced by a pyridyl carboxamide molecule” (Bioorg Med Chem Lett, 2012).
Calls of active or inactive are those of the source. The calls are words filed in the database; no cut-off is given here.

Columns and labels:
Assay type in all cases: nucleic-acid assay
Nucleic Acid [1] = test: Stabilization of human G-quadruplex G4A in 100 mM K+ solution assessed as formation of stable parallel structure measuring transformation rate constant at 60 uM after 1 day at 37 degC by CD spectroscopy
Nucleic Acid [2] = test: Stabilization of human G-quadruplex G4A in 100 mM K+ solution assessed as formation of stable parallel structure at 60 uM after heating at 95 degC and cooling to room temperature by CD spectroscopy
Nucleic Acid [3] = test: Binding affinity to human G-quadruplex Ap-12 substituted 21G at 5 uM up to 1 hr by fluorescence analysis
Nucleic Acid [4] = test: Binding affinity to human G-quadruplex Ap-18 substituted 21G at 5 uM up to 1 hr by fluorescence analysis
Nucleic Acid [5] = test: Binding affinity to human G-quadruplex FAM-21G at 20 uM by native PAGE analysis
Nucleic Acid [6] = test: Binding affinity to human G-quadruplex FAM-21G at 10 uM after 2 to 24 hrs by native PAGE analysis
Nucleic Acid [7] = test: Binding affinity to human G-quadruplex Ap-18 substituted 21G assessed as fluorescence quenching using ascorbic acid at 5 uM up to 1 hr by fluorescence analysis
Nucleic Acid [8] = test: Binding affinity to human G-quadruplex Ap-6 substituted 21G assessed as fluorescence quenching using ascorbic acid at 5 uM up to 1 hr by fluorescence analysis
Nucleic Acid [9] = test: Binding affinity to human G-quadruplex Ap-12 substituted 21G assessed as fluorescence quenching using ascorbic acid at 5 uM up to 1 hr by fluorescence analysis
Nucleic Acid [10] = test: Stabilization of human G-quadruplex G4A in 100 mM K+ solution assessed as time required to the formation of stable snti-parallel quadruplex structure at 60 uM at 37 degC by CD spectroscopy
Nucleic Acid [11] = test: Stabilization of human hybrid-type G-quadruplex G4A in 100 mM Na+ solution at room temperature assessed as formation of anti-parallel structure at 60 uM by CD spectroscopy
Nucleic Acid [12] = test: Binding affinity to human G-quadruplex Ap-6 substituted 21G at 5 uM up to 1 hr by fluorescence analysis
Nucleic Acid [13] = test: Stabilization of human G-quadruplex G4A in 100 mM K+ solution assessed as time required to the formation of stable parallel structure at 60 uM at 37 degC by CD spectroscopy
Nucleic Acid [14] = test: Stabilization of human hybrid-type G-quadruplex G4A in 100 mM K+ solution at room temperature assessed as formation of anti-parallel structure at 60 uM by CD spectroscopy
Nucleic Acid [15] = test: Stabilization of human G-quadruplex G4A in 100 mM K+ solution assessed as formation of stable parallel structure at 60 uM after 1 day at 37 degC by CD spectroscopy

Activity (Nucleic Acid [1]): 6.2 ×10⁻⁵ /s
Activity (Nucleic Acid [2]): Active
Activity (Nucleic Acid [3]): Active
Activity (Nucleic Acid [4]): Active
Activity (Nucleic Acid [5]): Active
Activity (Nucleic Acid [6]): Active
Activity (Nucleic Acid [7]): Active
Activity (Nucleic Acid [8]): Active
Activity (Nucleic Acid [9]): Active
TIME (Nucleic Acid [10]): 3 h
Activity (Nucleic Acid [11]): inactive
Activity (Nucleic Acid [12]): Active
TIME (Nucleic Acid [13]): 20 h
Activity (Nucleic Acid [14]): Active
Activity (Nucleic Acid [15]): 99%
Compound: C[N+]1(CC(=O)Nc2cccc(NC(=O)c3cccc(C(=O)Nc4cccc(NC(=O)C[N+]5(C)CCCCC5)n4)n3)n2)CCCCC1
